Like-named read-outs stand apart in the source and are kept apart here.
Tests used:
Format in all cases: cell-based
EAAC1 = biological target: T1, EAAC1 (UniProt P51907); experiment: Electrophysiology specificity experiment in transfected HEK293 cells, EAAC1; details: apparent Ki, HEK293, internal solution 10 mM glutamate, mean ± SD
T1 construct: Ki EAAC1; other: apparent Ki, HEK293, internal solution 10 mM glutamate, mean ± SD
T1 sequence (P51907 1-523): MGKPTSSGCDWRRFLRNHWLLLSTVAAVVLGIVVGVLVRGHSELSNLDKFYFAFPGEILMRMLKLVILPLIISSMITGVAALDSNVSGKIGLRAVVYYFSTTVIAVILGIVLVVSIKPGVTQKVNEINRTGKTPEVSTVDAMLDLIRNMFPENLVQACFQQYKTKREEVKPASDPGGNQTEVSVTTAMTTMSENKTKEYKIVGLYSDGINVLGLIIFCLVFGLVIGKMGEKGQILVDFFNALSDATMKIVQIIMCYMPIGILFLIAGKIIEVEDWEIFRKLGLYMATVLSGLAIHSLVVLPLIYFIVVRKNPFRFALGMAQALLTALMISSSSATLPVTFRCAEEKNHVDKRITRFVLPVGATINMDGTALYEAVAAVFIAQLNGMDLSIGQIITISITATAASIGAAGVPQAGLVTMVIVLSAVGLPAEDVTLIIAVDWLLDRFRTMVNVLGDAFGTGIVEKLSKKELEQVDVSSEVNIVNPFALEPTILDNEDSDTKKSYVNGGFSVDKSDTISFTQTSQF
Method: Cells were maintained at 37° C. in a fully humidified atmosphere containing 5% CO2. rASCT2, hASCT2, hASCT1, EAAT1, EAAT2, EAAC1, EAAT5 and YFP complementary DNAs were each used to transiently transfect HEK293 using POLYPLUS Jet-prime transfection reagent. Cells were analyzed using electrophysiological techniques 24-40 hours after transfection.
(§1) Stock solutions of inhibitor was prepared in dimethyl sulfoxide (DMSO) up to 100 mM. Dilutions to working concentrations were made using external buffer. […] For rASCT2, hASCT2 and hASCT1, external buffer contained 140 mM NaCl, 2 mM MgCl2, 2 mM CaCl2), and 10 mM HEPES, pH 7.40 while internal pipette solution comprised of 130 mM NaSCN, 2 mM MgCl2, 10 mM EGTA, 10 mM HEPES and 10 mM alanine, pH 7.40. For specificity experiments with EAAT1, EAAT2, EAAC1 and EAAT5, internal solution contained 10 mM glutamate instead of alanine. Compounds were applied to HEK293 cells expressing DNA of interest suspended from a current recording electrode in whole cell configuration through a rapid solution exchange device. Cells are immersed in external buffer bath used to dissolve the inhibitors. The open pipette resistance was between 3 and 6 MΩ. Series resistance was not compensated in these experiments due to relatively small currents. Currents traces were recorded using an Adams and List EPC7 amplifier and digitized using a Molecular Devices Digidata A/D converter.
Linear and nonlinear curve fitting of the experimental data were analyzed using MicroCal Origin software. Nonlinear dose-response relationships were fitted with a Michaelis-Menten-like equation to obtain apparent Ki values in the absence of substrate (see TABLE 2 for Ki values). […] At least four experiments were performed with at least three different cells. Error bars in all graphs, e.g., in FIG. 1B and FIG. 1C and tables (Ki values) represent mean±SD.

rASCT2 [1] = biological target: T2, rASCT2 (Rattus norvegicus, UniProt D3ZJ25); experiment: Electrophysiology (whole-cell current recording) of transfected HEK293 cells, rASCT2
T2 construct: expressed in transfected cells; host or cells: HEK293 (ATCC CRL-11268), transient transfection
T2 sequence (D3ZJ25 1-555): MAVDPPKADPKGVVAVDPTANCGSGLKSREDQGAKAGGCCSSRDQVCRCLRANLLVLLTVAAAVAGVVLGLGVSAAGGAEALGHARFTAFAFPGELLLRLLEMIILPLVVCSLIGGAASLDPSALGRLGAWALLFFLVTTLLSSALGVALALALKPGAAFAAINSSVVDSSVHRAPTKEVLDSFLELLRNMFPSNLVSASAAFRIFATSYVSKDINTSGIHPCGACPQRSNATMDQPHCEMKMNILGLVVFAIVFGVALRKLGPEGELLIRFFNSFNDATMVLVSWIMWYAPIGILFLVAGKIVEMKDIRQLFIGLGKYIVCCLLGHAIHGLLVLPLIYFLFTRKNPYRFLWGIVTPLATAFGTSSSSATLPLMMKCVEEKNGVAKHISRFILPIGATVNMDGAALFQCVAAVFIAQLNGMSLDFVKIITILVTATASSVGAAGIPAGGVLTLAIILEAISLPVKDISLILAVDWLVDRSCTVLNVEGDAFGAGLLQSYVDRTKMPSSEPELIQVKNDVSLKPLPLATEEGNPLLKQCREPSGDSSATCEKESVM
Method: (§2) Human embryonic kidney 293 (HEK293, ATCC CRL-11268) cells were cultured in DMEM media supplemented with 10% (v v) fetal bovine serum (FBS), 2 mM glutamine, 1% penicillin streptomycin solution, 1 mM sodium pyruvate and non-essential amino acids. Cells were maintained at 37° C. in a fully humidified atmosphere containing 5% CO2. rASCT2, hASCT2, hASCT1, EAAT1, EAAT2, EAAC1, EAAT5 and YFP complementary DNAs were each used to transiently transfect HEK293 using POLYPLUS Jet-prime transfection reagent. Cells were analyzed using electrophysiological techniques 24-40 hours after transfection.
as §1
(§3) Linear and nonlinear curve fitting of the experimental data were analyzed using MicroCal Origin software. Nonlinear dose-response relationships were fitted with a Michaelis-Menten-like equation to obtain apparent Ki values in the absence of substrate (see TABLE 2 for Ki values). The figures show representative current traces and dose-response curves for hACST2 and rASCT2, used to obtain Ki values in TABLE 2 for compound SN 40. At least four experiments were performed with at least three different cells. Error bars in all graphs, e.g., in FIG. 1B and FIG. 1C and tables (Ki values) represent mean±SD.

EAAT1 = biological target: T3, EAAT1 (Homo sapiens, UniProt P43003); experiment: Electrophysiology specificity experiment in transfected HEK293 cells, EAAT1; details: apparent Ki, HEK293, internal solution 10 mM glutamate, mean ± SD
T3 construct: expressed in transfected cells; host or cells: HEK293 (ATCC CRL-11268), transient transfection
Method: as §2, §1, §3

hASCT2 [2] = biological target: T4, hASCT2 (Homo sapiens, UniProt Q15758); experiment: Electrophysiology (whole-cell current recording) of transfected HEK293 cells, hASCT2
T4 construct: expressed in transfected cells; host or cells: HEK293 (ATCC CRL-11268), transient transfection
T4 sequence (Q15758 1-541): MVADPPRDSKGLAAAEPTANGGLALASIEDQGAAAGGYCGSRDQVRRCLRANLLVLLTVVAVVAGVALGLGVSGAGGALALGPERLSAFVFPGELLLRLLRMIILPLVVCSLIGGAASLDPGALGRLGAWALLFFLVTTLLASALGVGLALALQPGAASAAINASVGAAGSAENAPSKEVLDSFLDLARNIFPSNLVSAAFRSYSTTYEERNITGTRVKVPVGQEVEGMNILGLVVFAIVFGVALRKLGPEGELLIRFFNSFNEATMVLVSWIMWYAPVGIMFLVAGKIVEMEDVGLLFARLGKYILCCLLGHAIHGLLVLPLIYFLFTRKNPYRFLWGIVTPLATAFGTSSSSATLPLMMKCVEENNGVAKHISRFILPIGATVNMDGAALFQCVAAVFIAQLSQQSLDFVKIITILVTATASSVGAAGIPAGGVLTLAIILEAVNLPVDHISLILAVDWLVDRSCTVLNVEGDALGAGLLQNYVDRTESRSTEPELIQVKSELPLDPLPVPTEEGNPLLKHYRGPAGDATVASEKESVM
Method: as §2, §1, §3

rASCT2 [3] = biological target: T2, rASCT2; experiment: Competition experiment with alanine, rASCT2; details: second entry of the cell; for Ki: read-out: Competition Expt (h/rASCT2 Ki): rASCT2 Ki
hASCT2 [4] = biological target: T4, hASCT2; experiment: Competition experiment with alanine, hASCT2; details: first entry of the cell; for Ki: read-out: Competition Expt (h/rASCT2 Ki): hASCT2 Ki
hASCT1 = biological target: T5, hASCT1 (Homo sapiens, UniProt P43007); experiment: Electrophysiology (whole-cell current recording) of transfected HEK293 cells, hASCT1
T5 construct: expressed in transfected cells; host or cells: HEK293 (ATCC CRL-11268), transient transfection
T5 sequence (P43007 1-532): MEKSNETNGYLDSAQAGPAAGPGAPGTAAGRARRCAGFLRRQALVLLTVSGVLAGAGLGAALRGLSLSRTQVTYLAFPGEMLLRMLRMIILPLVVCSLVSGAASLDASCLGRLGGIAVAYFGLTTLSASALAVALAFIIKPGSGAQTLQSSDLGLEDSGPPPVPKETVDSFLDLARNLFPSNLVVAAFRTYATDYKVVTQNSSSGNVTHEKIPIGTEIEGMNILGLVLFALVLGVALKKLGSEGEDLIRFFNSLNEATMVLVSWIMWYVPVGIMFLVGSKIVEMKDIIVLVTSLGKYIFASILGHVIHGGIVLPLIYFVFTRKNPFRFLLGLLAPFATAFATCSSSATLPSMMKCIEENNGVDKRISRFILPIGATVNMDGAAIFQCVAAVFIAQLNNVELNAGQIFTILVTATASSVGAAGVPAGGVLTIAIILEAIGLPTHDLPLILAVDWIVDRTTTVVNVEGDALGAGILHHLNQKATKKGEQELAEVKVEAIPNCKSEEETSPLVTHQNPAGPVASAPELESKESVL
Method: as §2, §1, §3

EAAT5 = biological target: T6, EAAT5 (Homo sapiens, UniProt O00341); experiment: Electrophysiology specificity experiment in transfected HEK293 cells, EAAT5; details: apparent Ki, HEK293, internal solution 10 mM glutamate, mean ± SD
T6 construct: expressed in transfected cells; host or cells: HEK293 (ATCC CRL-11268), transient transfection
Method: as §2, §1, §3

[5] = apparent Ki in the absence of substrate, HEK293, mean ± SD, read-out: Ki rASCT2
[6] = apparent Ki in the absence of substrate, HEK293, mean ± SD, read-out: Ki hASCT2
[7] = Table 3, dihydroxyproline derivatives, read-out: Ki All DNA: hASCT2
[8] = Table 3, dihydroxyproline derivatives, read-out: Ki All DNA: rASCT2

T3 sequence (P43003 whole entry, species assumed): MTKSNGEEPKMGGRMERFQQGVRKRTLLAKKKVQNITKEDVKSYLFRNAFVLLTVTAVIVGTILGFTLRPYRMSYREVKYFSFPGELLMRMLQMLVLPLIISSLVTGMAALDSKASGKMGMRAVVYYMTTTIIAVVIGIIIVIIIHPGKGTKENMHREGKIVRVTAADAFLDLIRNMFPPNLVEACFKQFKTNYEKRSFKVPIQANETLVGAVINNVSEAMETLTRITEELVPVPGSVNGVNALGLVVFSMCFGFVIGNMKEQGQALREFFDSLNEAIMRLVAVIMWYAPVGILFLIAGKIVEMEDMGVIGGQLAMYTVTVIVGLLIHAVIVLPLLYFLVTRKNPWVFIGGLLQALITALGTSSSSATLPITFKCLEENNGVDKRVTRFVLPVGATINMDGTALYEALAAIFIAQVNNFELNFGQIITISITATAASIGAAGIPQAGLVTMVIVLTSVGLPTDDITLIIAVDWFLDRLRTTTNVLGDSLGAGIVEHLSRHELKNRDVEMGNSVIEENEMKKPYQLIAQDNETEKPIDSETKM
T6 sequence (O00341 whole entry, species assumed): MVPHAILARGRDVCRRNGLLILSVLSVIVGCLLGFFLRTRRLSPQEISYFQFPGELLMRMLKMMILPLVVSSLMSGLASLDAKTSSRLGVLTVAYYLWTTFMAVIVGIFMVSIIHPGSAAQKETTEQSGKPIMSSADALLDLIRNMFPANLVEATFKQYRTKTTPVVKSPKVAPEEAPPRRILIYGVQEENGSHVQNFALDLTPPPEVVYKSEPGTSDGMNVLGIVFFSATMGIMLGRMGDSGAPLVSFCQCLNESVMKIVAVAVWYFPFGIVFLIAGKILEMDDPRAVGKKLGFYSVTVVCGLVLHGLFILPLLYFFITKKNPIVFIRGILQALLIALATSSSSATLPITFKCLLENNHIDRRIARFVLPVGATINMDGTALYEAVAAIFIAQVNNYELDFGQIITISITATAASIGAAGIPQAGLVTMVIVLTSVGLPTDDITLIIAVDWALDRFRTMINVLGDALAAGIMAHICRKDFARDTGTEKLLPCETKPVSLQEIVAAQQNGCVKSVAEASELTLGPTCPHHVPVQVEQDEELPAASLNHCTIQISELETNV

| Structure (SMILES) | Ki (rASCT2 [1]; [5]) [µM] | Ki (EAAT1) [µM] | Ki (hASCT2 [2]; [6]) [µM] | Ki (hASCT2 [2]; [7]) [µM] | Ki (rASCT2 [3]; 1 mM ala) [µM] | Ki (hASCT2 [4]; 1 mM ala) [µM] | Ki (rASCT2 [1]; [8]) [µM] | further results |
| --- | --- | --- | --- | --- | --- | --- | --- | --- |
| O=C(O)[C@H]1NC[C@@H](NCc2ccc(-c3ccccc3)cc2)[C@@H]1O [SN 50] | 1.34 ± 0.1 | 2.71 ± 0.7 | 1.61 ± 0.2 | – | – | – | – | Ki (EAAC1): 20.1 ± 6.2 µM |
| O=C(OC[C@]1(O)CN[C@H](C(=O)O)C1)c1ccc(-c2ccc(C(F)(F)F)cc2)cc1 [SN67] | – | – | – | 115 | – | – | – | Competition Expt % block (given as a decimal): rASCT2 (rASCT2 [3]; 0.5 mM ala, decimal fraction): 0; Competition Expt % block (given as a decimal): hASCT2 (hASCT2 [4]; 0.5 mM ala, decimal fraction): 0; Ki All DNA: hASCT1 (hASCT1; Table 3, dihydroxyproline derivatives): NA, NC |
| O=C(Nc1cccc(C(=O)O[C@@H]2CN[C@H](C(=O)O)C2)c1)c1ccccc1 [SN 16] | 0.11 ± 0.04 | 49.4 ± 9.7 | 0.39 ± 0.1 | – | – | – | – | Ki (EAAT5): 566 ± 188 µM; Ki (hASCT1; apparent Ki in the absence of substrate, HEK293, mean ± SD, read-out: Ki hASCT1): 10.1 ± 0.6 µM |
| O=C(OC[C@@]1(O)CN[C@H](C(=O)O)C1)c1ccc(-c2ccc(C(F)(F)F)cc2)cc1 [SN59] | – | – | – | 3.24 | 0.15 | 19.4 | 0.005 | Competition Expt % block (given as a decimal): rASCT2 (rASCT2 [3]; 1 mM ala): full; Competition Expt % block (given as a decimal): hASCT2 (hASCT2 [4]; 1 mM ala): full; Ki (hASCT1; Table 3, dihydroxyproline derivatives, read-out: Ki All DNA: hASCT1): 0.002 µM |
| O=C(OC[C@]1(O)CN[C@H](C(=O)O)C1)c1ccc(-c2ccc(F)cc2)cc1 [SN66] | – | – | – | 15.5 | 49 | 28 | 27.6 | – |

— US20230416199A1, “INHIBITORS OF AMINO ACID TRANSPORT” (ICAHN SCHOOL OF MEDICINE AT MOUNT SINAI, priority 2020, published 2023)
